Data published in patent US20240190891A1, “PYRIDO OXAZINE AMINO DERIVATIVES AS ALK5 INHIBITORS” (CHIESI FARMACEUTICI S.P.A., priority 2020, published 2024).

Target: T1, human ALK5 (Homo sapiens, UniProt P36897)
T1 construct: human ALK5 (recombinant TGF β1 N-term GST-tagged, 80-end); GST (N); purchased
T1 sequence (P36897 80-503 limits assumed): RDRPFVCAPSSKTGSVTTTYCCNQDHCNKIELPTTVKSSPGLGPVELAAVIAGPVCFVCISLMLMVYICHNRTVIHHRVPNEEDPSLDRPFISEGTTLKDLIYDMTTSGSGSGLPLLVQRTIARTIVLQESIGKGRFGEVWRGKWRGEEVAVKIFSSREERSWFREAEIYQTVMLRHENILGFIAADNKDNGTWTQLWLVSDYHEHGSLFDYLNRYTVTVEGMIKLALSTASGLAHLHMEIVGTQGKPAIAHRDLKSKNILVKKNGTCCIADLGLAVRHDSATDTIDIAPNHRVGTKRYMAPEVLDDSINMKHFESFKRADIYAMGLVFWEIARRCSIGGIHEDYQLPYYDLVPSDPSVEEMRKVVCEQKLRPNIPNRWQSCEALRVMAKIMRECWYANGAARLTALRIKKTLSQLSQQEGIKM
Assay: ADP-GLO Kinases assay, inhibitory activity on ALK5
Format: biochemical
Conditions: Table 10; purified recombinant human ALK5 2.6 nM, ADP-Glo, 25° C., 150 min incubation
Experimental: The enzymatic activity of compounds of the present invention was monitored measuring the formation of ADP using the ADP-GLO Kinases assay. Following the incubation of the purified enzyme, a substrate and ATP, the produced ADP was converted into ATP, which in turn was converted into light by Ultra-Glo Luciferase. The luminescent signal positively correlated with ADP amount and kinase activity. Briefly, the kinase reaction was performed by incubating 2.6 nM of the purified, commercially available human ALK5 (recombinant TGF β1 N-term GST-tagged, 80-end), a final concentration of TGFβ1 peptide 94.5 μM (Promega, T36-58) and ultra-pure ATP (Promega V915B). The ATP concentration was set at the Km value (concentration of substrate which permits the enzyme to achieve half maximal velocity (Vmax)) of ALK5 (5 μM). All reactions/incubations were performed at 25° C. Compound and ALK5 kinase were mixed and incubated for 15 mins. Reactions were initiated by addition of ATP at a final concentration in the assay of 0.83 μM. After an incubation of 150 min, the reaction was stopped, and ADP production detected with ADP-Glo kit according to manufacturer's indications. The assay was performed in 384-well format and was validated using a selection of reference compounds that was tested in 11 point concentration-response curve.
Compounds of the examples C1, C2 and C3 were tested in the same in vitro assay described above.

IC50	Compound
1 to 5 nM	CC(=O)N1CCN(CCNC(=O)c2cnccc2Nc2cc(-c3cc(Cl)ccc3F)nc3c2OCCN3)CC1 [Example 47, N-[2-(4-acetylpiperazin-1-yl)ethyl]-4-{[6-(5-chloro-2-fluorophenyl)-2H,3H,4H-pyrido[3,2-b][1,4]oxazin-8-yl]amino}pyridine-3-carboxamide]
< 1 nM	CN1CCC(CCNC(=O)c2cc3c(Nc4cc(-c5cc(Cl)ccc5F)nc5c4OCCN5)ccnc3[nH]2)CC1 [Example 48, 4-{[6-(5-chloro-2-fluorophenyl)-2H,3H,4H-pyrido[3,2-b][1,4]oxazin-8-yl]amino}-N-[2-(1-methylpiperidin-4-yl)ethyl]-1H-pyrrolo[2,3-b]pyridine-2-carboxamide]
< 1 nM	CN(C)CCNC(=O)c1cc2c(Nc3cc(-c4cc(Cl)ccc4F)nc4c3OCCN4)ccnc2[nH]1 [Example 49, 4-{[6-(5-chloro-2-fluorophenyl)-2H,3H,4H-pyrido[3,2-b][1,4]oxazin-8-yl]amino}-N-[2-(dimethylamino)ethyl]-1H-pyrrolo[2,3-b]pyridine-2-carboxamide]
< 1 nM	COC(=O)c1cc2c(Nc3cc(-c4cc(Cl)ccc4F)nc4c3OCCN4)ccnc2[nH]1 [Example 38, methyl 4-{[6-(5-chloro-2-fluorophenyl)-2H,3H,4H-pyrido[3,2-b][1,4]oxazin-8-yl]amino}-1H-pyrrolo[2,3-b]pyridine-2-carboxylate]
< 1 nM	Cc1cccc(-c2cc(Nc3ccnc4[nH]ccc34)c3c(n2)NCCO3)n1 [Example 45, 6-(6-methylpyridin-2-yl)-N-{1H-pyrrolo[2,3-b]pyridin-4-yl}-2H,3H,4H-pyrido[3,2-b][1,4]oxazin-8-amine]
< 1 nM	Fc1ccc(Cl)cc1-c1cc(Nc2ccnc3[nH]cnc23)c2c(n1)NCCO2 [Example 35, 6-(5-chloro-2-fluorophenyl)-N-{3H-imidazo[4,5-b]pyridin-7-yl}-2H,3H,4H-pyrido[3,2-b][1,4]oxazin-8-amine]
< 1 nM	COC(=O)c1c[nH]c2nccc(Nc3cc(-c4cc(Cl)ccc4F)nc4c3OCCN4)c12 [Example 36, methyl 4-{[6-(5-chloro-2-fluorophenyl)-2H,3H,4H-pyrido[3,2-b][1,4]oxazin-8-yl]amino}-1H-pyrrolo[2,3-b]pyridine-3-carboxylate]
< 1 nM	CN1CCC(NC(=O)c2cnccc2Nc2cc(-c3cc(Cl)ccc3F)nc3c2OCCN3)CC1 [Example 32, 4-{[6-(5-chloro-2-fluorophenyl)-2H,3H,4H-pyrido[3,2-b][1,4]oxazin-8-yl]amino}-N-(1-methylpiperidin-4-yl)pyridine-3-carboxamide]
< 1 nM	Cc1cccc(-c2cc(Nc3ccnc4[nH]cnc34)c3c(n2)NCCO3)n1 [Example 40, N-{3H-imidazo[4,5-b]pyridin-7-yl}-6-(6-methylpyridin-2-yl)-2H,3H,4H-pyrido[3,2-b][1,4]oxazin-8-amine]

Further lines, the compound ahead of its results:

Compound	IC50
Clc1cccc(-c2cc(Nc3ccncc3)c3c(n2)NCCO3)c1 [Example 15, N-[6-(3-chlorophenyl)-2H,3H,4H-pyrido[3,2-b][1,4]oxazin-8-yl]pyridin-4-amine]	1 to 5 nM
CN1CCN(CCOC(=O)c2cnccc2Nc2cc(-c3cc(Cl)ccc3F)nc3c2OCCN3)CC1 [Example 29, 2-(4-methylpiperazin-1-yl)ethyl 4-{[6-(5-chloro-2-fluorophenyl)-2H,3H,4H-pyrido[3,2-b][1,4]oxazin-8-yl]amino}pyridine-3-carboxylate]	< 1 nM
Fc1ccc(F)c(-c2cc(Nc3ccncc3)c3c(n2)NCCO3)c1 [Example 14, N-[6-(2,5-difluorophenyl)-2H,3H,4H-pyrido[3,2-b][1,4]oxazin-8-yl]pyridin-4-amine]	1 to 5 nM
Fc1ccc(-c2cc(Nc3ccncc3)c3c(n2)NCCO3)cc1Cl [Example 19, N-[6-(3-chloro-4-fluorophenyl)-2H,3H,4H-pyrido[3,2-b][1,4]oxazin-8-yl]pyridin-4-amine]	5 to 10 nM
CNCCNC(=O)c1cnccc1Nc1cc(-c2cc(Cl)ccc2F)nc2c1OCCN2 [Example 21, 4-{[6-(5-chloro-2-fluorophenyl)-2H,3H,4H-pyrido[3,2-b][1,4]oxazin-8-yl]amino}-N-[2-(methylamino)ethyl]pyridine-3-carboxamide]	< 1 nM
CN(C)CCNC(=O)c1cnccc1Nc1cc(-c2cc(Cl)ccc2F)nc2c1OCCN2 [Example 10, 4-{[6-(5-chloro-2-fluorophenyl)-2H,3H,4H-pyrido[3,2-b][1,4]oxazin-8-yl]amino}-N-[2-(dimethylamino)ethyl]pyridine-3-carboxamide]	< 1 nM
O=C(NC1CC1)c1cnccc1Nc1cc(-c2cc(Cl)ccc2F)nc2c1OCCN2 [Example 23, 4-{[6-(5-chloro-2-fluorophenyl)-2H,3H,4H-pyrido[3,2-b][1,4]oxazin-8-yl]amino}-N-cyclopropylpyridine-3-carboxamide]	< 1 nM
CNC(=O)c1cc(Nc2cc(-c3cc(Cl)ccc3F)nc3c2OCCN3)ccn1 [Example 6, 4-{[6-(5-chloro-2-fluorophenyl)-2H,3H,4H-pyrido[3,2-b][1,4]oxazin-8-yl]amino}-N-methylpyridine-2-carboxamide]	5 to 10 nM
O=C(O)c1cnccc1Nc1cc(-c2cc(Cl)ccc2F)nc2c1OCCN2 [Example 16, lithium 4-{[6-(5-chloro-2-fluorophenyl)-2H,3H,4H-pyrido[3,2-b][1,4]oxazin-8-yl]amino}pyridine-3-carboxylate]	< 1 nM
CC(C)NC(=O)c1cnccc1Nc1cc(-c2cc(Cl)ccc2F)nc2c1OCCN2 [Example 22, 4-{[6-(5-chloro-2-fluorophenyl)-2H,3H,4H-pyrido[3,2-b][1,4]oxazin-8-yl]amino}-N-(propan-2-yl)pyridine-3-carboxamide]	1 to 5 nM
COC(=O)c1cnccc1Nc1cc(-c2cc(Cl)ccc2F)nc2c1OCCN2 [Example 17, methyl 4-{[6-(5-chloro-2-fluorophenyl)-2H,3H,4H-pyrido[3,2-b][1,4]oxazin-8-yl]amino}pyridine-3-carboxylate]	< 1 nM
CNC(=O)c1cnccc1Nc1cc(-c2cc(Cl)ccc2F)nc2c1OCCN2 [Example 2, 4-{[6-(5-chloro-2-fluorophenyl)-2H,3H,4H-pyrido[3,2-b][1,4]oxazin-8-yl]amino}-N-methylpyridine-3-carboxamide]	< 1 nM
Fc1ccc(-c2cc(Nc3ccncc3)c3c(n2)NCCO3)nc1 [Example 26, N-[6-(5-fluoropyridin-2-yl)-2H,3H,4H-pyrido[3,2-b][1,4]oxazin-8-yl]pyridin-4-amine]	5 to 10 nM
Nc1cc(Nc2cc(-c3cc(Cl)ccc3F)nc3c2OCCN3)ccn1 [Example 3, N4-[6-(5-chloro-2-fluorophenyl)-2H,3H,4H-pyrido[3,2-b][1,4]oxazin-8-yl]pyridine-2,4-diamine]	1 to 5 nM

Same assay, conditions: Table 11, comparative examples; same in vitro assay

IC50	Compound
6500 nM	Fc1ccc(Cl)cc1-c1cc(-c2ccncc2)c2c(n1)NCCO2 [Example C1, 4-[6-(5-chloro-2-fluorophenyl)-2H,3H,4H-pyrido[3,2-b][1,4]oxazin-8-yl]pyridine, reference compound]
1700 nM	Oc1ccc(-c2cc(-c3cc(Cl)ccc3F)nc3c2OCCN3)cc1 [Example C2, 4-[6-(5-chloro-2-fluorophenyl)-2H,3H,4H-pyrido[3,2-b][1,4]oxazin-8-yl]phenol, reference compound]
